Converted amounts (≈) assume the structure as drawn. Like-named read-outs stand apart in the source and are kept apart here.
Experiments:
[1] = system: SK-MEL-2 (human malignant melanoma); assay: SRB cytotoxicity test, SK-MEL-2; format: cell-based; settings: Homo sapiens, read-out: Cytotoxicity IC50, SK-MEL-2
Protocol: (§1) To determine the cytotoxicity against human tumor cell line of the test samples prepared in Examples, following sulforhodamin B (SRB) bioassy test was performed according to the method disclosed in the literature (Skehan, P., et al., J. Natl. Cancer Inst., 82, 1990, 1107-1112).
(§2) Various human tumor cell lines, i.e., A-549 (human adenocarcinoma of lung, NCI), SK-OV-3 (human ovarian tumor, NCI), SK-MEL-2 (human malignant melanoma, NCI), HCT15 (human colon adenocarcinoma, NCI), MES-SA (human uterine carcinoma, NCI) and MES-SA/DX5 (multidrug resistant carcinoma subline of MES-SA, NCI) were used in the test.
(§3) The subcultured cell lines were detached from the surface of wall using by trypsin-EDTA solution and adjusted to various concentration of cell lines, i.e., 5×10^3 cells/well (A-549, HCT15), 1×10^4 cells/well (SK-MEL-2), 5×10^3 cells/well (SK-OV-3) in 96-well flat bottom microplate. The inoculated cell lines were incubated in CO2 incubator (MCO-20AIC, SANYO Electric Co., LTd.) to be attached on the bottom of incubator and the culture media was removed with aspirator. 6 logarithmic concentrations of the diluted test samples were added to each well containing cell line at 100 μl/well in a three fold dilution manner and the cell was incubated for 48 hours. The culture media in each well was removed and 100μ of 10% trichloroacetic acid was added thereto to be left alone at 4° C. for 1 hour and to fix the cells to the bottom of the plates. […] The cell plates were shaked with titer plate shaker (KOMA Orbital Shaker KE011, KOMABIOTech) for 10 mins to exude the staining solution and to determine the absorbance at 520 nm using by microplate spectrophotometer (Sunrise, TECAN).

[2] = system: MES-SA/DX5 (multidrug resistant carcinoma subline of MES-SA); assay: SRB cytotoxicity test, MES-SA/DX5; format: cell-based, human; settings: Homo sapiens, MES-SA/Dx5, 48 h, read-out: Cytotoxicity IC50, MES-SA/DX5
Protocol: as §1, §2, §3

[3] = system: MES-SA (human uterine carcinoma); assay: SRB cytotoxicity test, MES-SA; format: cell-based; settings: Homo sapiens, MES-SA, 48 h
Protocol: as §1, §2, §3

HPV16 PVs [4] = assay: Virus inhibition test (in vitro), SEAP activity of 293TT cells infected with HPV pseudovirion; format: cell-based; settings: Human papillomavirus 16, read-out: inhibitory activity on HPV16 PVs
HPV16 PVs [5] = assay: as above; format: cell-based; settings: Human papillomavirus 16, read-out: inhibitory activity from HPV16 PVs
Protocol: Prior to in vitro antiviral assay, 5×10^3 of 293TT cell was seeded on 96-well plate and incubated at 37° C. for 16 hours in 5% CO2 atmosphere. The culture media was removed and each extract was diluted to the concentration of 100 μg/ml or 50 μg/ml to distribute into each cell at the dose of 100 μl/cell. After treating with the extract for 16 hours, the culture media was removed and the cell was washed with PBS twice. The cell was infected by 106RLU/ml of HPV PVs at the dose of 100 μl/cell and incubated for 48 hours at 37° C. in 5% CO2 atmosphere. To determine the viral activity, the supernatant of the cell culture was used for determine the activity of secreted alkaline phosphatase (SEAP) using by Great EscAPE™ SEAP Chemiluminescence Kit (631738, Clontech, CA, USA). To determine the SEAP activity, relative light units (RLU) value was obtained using by Luminescence coulter (Micro beta triLux 1450, PerkinElmer, CT, USA) and the RLU values of the cell treated with the extract and untreated with the extract, were compared with each other. The decrease of SEAP activity was regarded as the inhibition effect against HPV PVs.
To determine the inhibitory effect on luciferase-comprising HPV virus contagion of the test samples prepared in Examples, following test was performed according to the method disclosed in the literature (Shaneyfelt et al., Virology Journal, 3:68, 2006, 1-11; Roden et al., J. Virol., 70, 1996, 5875-5883; Unckell et al., J. Virol., 71, 1997, 2934-2939; Touze et al., Nucleic Acids Research, 26, 1998, 1317-1323; Selinka et al., J. Virol., 77, 2003, 12961-12967; Klasse et al., Journal of General Virology, 83, 2002, 2091-2108)
5×10^3293TT cell was seeded on 96-well plate and incubate for 16 hours. 50 μg of test sample was mixed with the culture media in the concentration of 100 ug/ml and incubated for 16 hours. The media was washed with 100 μl of PBS twice and the cell was infected with 10^6RLU/ml of HPV pseudovirion at the dose of 100 μl/cell to incubate at 37° C., for 48 hours in 5% CO2 atmosphere.
5× lysis buffer in Great EscAPE™ SEAP Chemiluminescence Kit (631738, Clontech, CA, USA) was made to 1× and both of 45 μl of 1× lysis buffer and 15 μl of cell culture medium were added to 96-well plate (3912, Costar, NY, USA). 60 μl of the substrate in Great EscAPE™ SEAP Chemiluminescence kit was added thereto and the relative light units (RLU) value was obtained using by Luminescence coulter (Micro beta triLux 1450, PerkinElmer, CT, USA). The RLU values of the cell treated with the extract and untreated with the extract, were compared with each other and the decrease of SEAP activity was regarded as the inhibition effect against HPV PVs.

[6] = system: HCT15 (human colon adenocarcinoma); assay: SRB cytotoxicity test, HCT15; format: cell-based; settings: Homo sapiens, HCT-15, 48 h
Protocol: as §1, §2, §3

[7] = system: A-549 (human adenocarcinoma of lung); assay: SRB cytotoxicity test, A-549; format: cell-based; settings: Homo sapiens, read-out: Cytotoxicity IC50, A-549
Protocol: as §1, §2, §3

[8] = system: SK-OV-3 (human ovarian tumor); assay: SRB cytotoxicity test, SK-OV-3; format: cell-based; settings: Homo sapiens, read-out: Cytotoxicity IC50, SK-OV-3
Protocol: as §1, §2, §3

HCT15/CL02 = assay: SRB cytotoxicity test, HCT15/CL02; format: cell-based, human; settings: Homo sapiens, HCT-15; Table 4, 48 hours
Protocol: To determine the cytotoxicity against human tumor cell line of the test samples prepared in Examples, following sulforhodamin B (SRB) bioassy test was performed according to the method disclosed in the literature (Skehan, P., et al., J. Natl. […] The inoculated cell lines were incubated in CO2 incubator (MCO-20AIC, SANYO Electric Co., LTd.) to be attached on the bottom of incubator and the culture media was removed with aspirator. 6 logarithmic concentrations of the diluted test samples were added to each well containing cell line at 100 μl/well in a three fold dilution manner and the cell was incubated for 48 hours. […] The cell plates were shaked with titer plate shaker (KOMA Orbital Shaker KE011, KOMABIOTech) for 10 mins to exude the staining solution and to determine the absorbance at 520 nm using by microplate spectrophotometer (Sunrise, TECAN).

Compound: C=C[C@]1(C)C=C2CC[C@@H]3[C@](C)(CCC[C@@]3(C)C(=O)O)[C@H]2CC1 [compound (j), sandaracopimaric acid]
- IC50 ([1]; SK-MEL-2, Table 3, 48 hours): 11.2 µg/mL (≈ 36.9 µM)
- IC50 [2]: 11.1 µg/mL (≈ 36.6 µM)
- IC50 ([3]; Table 3, 48 hours, read-out: Cytotoxicity IC50, MES-SA): 10.4 µg/mL (≈ 34.6 µM)
- inhibition at 5 µg/mL (HPV16 PVs [4]): ~50%
- inhibition at 50 µg/mL (HPV16 PVs [5]): 70 to 80%
- IC50 ([6]; Table 3, 48 hours, read-out: Cytotoxicity IC50, HCT15): 13.6 µg/mL (≈ 44.9 µM)
- IC50 ([7]; A549, Table 3, 48 hours): 13.6 µg/mL (≈ 45.1 µM)
- IC50 ([8]; SK-OV-3, Table 3, 48 hours): 12.1 µg/mL (≈ 40.1 µM)

Compound: CC(C)c1ccc2c(c1)CC[C@H]1[C@](C)(C(=O)O)CCC[C@]21C [compound (i), dehydroabietic acid]
- IC50 ([1]; SK-MEL-2, 48 h): 13 µg/mL (≈ 43.3 µM)
- IC50 [2]: 12 µg/mL (≈ 40 µM)
- IC50 ([3]; read-out: Cytotoxicity IC50, MES-SA): 10.3 µg/mL (≈ 34.4 µM)
- inhibition at 5 µg/mL (HPV16 PVs [4]): ~50%
- inhibition at 50 µg/mL (HPV16 PVs [5]): 70 to 80%
- IC50 ([6]; read-out: Cytotoxicity IC50, HCT15): 15.7 µg/mL (≈ 52.2 µM)
- IC50 ([7]; A549, 48 h): 13.4 µg/mL (≈ 44.7 µM)
- IC50 ([8]; SK-OV-3, 48 h): 17.3 µg/mL (≈ 57.5 µM)

Compound: COc1cccc2c1C(=O)c1c(O)c3c(c(O)c1C2=O)C[C@@](O)(C(=O)CO)C[C@@H]3O[C@H]1C[C@H](N)[C@H](O)[C@H](C)O1 [doxorubicin, reference compound]
- IC50 ([1]; SK-MEL-2, 48 h): 0.0012 µg/mL (≈ 0.00221 µM)
- IC50 ([2]; Table 1, extract and solvent fractions, 48 hours): 0.412 µg/mL (≈ 0.758 µM)
- IC50 ([2]; Table 2, purified extracts, 48 hours): 0.412 µg/mL (≈ 0.758 µM)
- IC50 ([2]; Table 3, 48 hours): 1.45 µg/mL (≈ 2.67 µM)
- IC50 ([2]; Table 4, 48 hours): 1.45 µg/mL (≈ 2.67 µM)
- IC50 ([3]; read-out: Cytotoxicity IC50, MES-SA, Table 1, extract and solvent fractions, 48 hours): 0.0002 µg/mL (≈ 0.000368 µM)
- IC50 ([3]; read-out: Cytotoxicity IC50, MES-SA, Table 2, purified extracts, 48 hours): 0.0002 µg/mL (≈ 0.000368 µM)
- IC50 ([3]; read-out: Cytotoxicity IC50, MES-SA, Table 3, 48 hours): 0.0051 µg/mL (≈ 0.00938 µM)
- IC50 ([3]; read-out: Cytotoxicity IC50, MES-SA, Table 4, 48 hours): 0.0051 µg/mL (≈ 0.00938 µM)
- IC50 (HCT15/CL02): 2.11 µg/mL (≈ 3.88 µM)
- IC50 ([6]; read-out: Cytotoxicity IC50, HCT15, Table 3, 48 hours): 0.0833 µg/mL (≈ 0.153 µM)
- IC50 ([6]; read-out: Cytotoxicity IC50, HCT15, Table 4, 48 hours): 0.016 µg/mL (≈ 0.0294 µM)
- IC50 ([7]; A549, 48 h): 0.0072 µg/mL (≈ 0.0132 µM)
- IC50 ([8]; SK-OV-3, 48 h): 0.0104 µg/mL (≈ 0.0191 µM)
